Assay results as given in ChEMBL document CHEMBL1136078, “Fundamental structure-activity relationships associated with a new structural class of respiratory syncytial virus inhibitor” (Bioorg Med Chem Lett, 2003).
pEC50: −log10 of the molar value.

How the values were obtained:
[1] = system: Respiratory syncytial virus; experiment: Antiviral activity against respiratory syncytial virus in HEp-2 human lung carcinoma cell line; […]; format: functional, organism-based
HEp-2 = experiment: Concentration that causes cytotoxicity to uninfected HEp-2 human lung carcinoma cell line; format: functional
[2] = system: Respiratory syncytial virus; experiment: Antiviral activity against respiratory syncytial virus in HEp-2 human lung carcinoma cell line; format: functional, organism-based

| Compound | EC50 [1] | CC50 (HEp-2) | pEC50 [2] |
| --- | --- | --- | --- |
| COC(=O)Cn1c(Cn2nnc3ccccc32)nc2ccccc21 | Not Active | 374 µM |  |
| O=C(O)CCn1c(Cn2nnc3ccccc32)nc2ccccc21 |  | 184 µM | 4.74 |
| O=C(O)Cn1c(Cn2nnc3ccccc32)nc2ccccc21 | Not Active | 303 µM |  |
| CC(C)Cn1c(Cn2nc3ccccc3n2)nc2ccccc21 |  | 106 µM | 4.32 |
| CC(C)n1c(Cn2nc3ccccc3n2)nc2ccccc21 |  | 58 µM | 4.29 |
| N#CCCn1c(Cn2nnc3ccccc32)nc2ccccc21 |  | 49.3 µM | 5.57 |
| CC(C)CCn1c(Cn2nc3ccccc3n2)nc2ccccc21 |  | 13.5 µM | 6.36 |
| c1ccc2[nH]c(Cn3nnc4ccccc43)nc2c1 |  | 164 µM | 4.51 |
| CC(C)Cn1c(Cn2nnc3ccccc32)nc2ccccc21 | Not Active | 15.5 µM |  |
| O=C(Cn1c(Cn2nnc3ccccc32)nc2ccccc21)c1ccccc1 |  | 18 µM | 5.66 |
| CC(C)CCCn1c(Cn2nnc3ccccc32)nc2ccccc21 |  | 24 µM | 6.72 |
| NC(=O)CCn1c(Cn2nnc3ccccc32)nc2ccccc21 |  | 4.28 µM | 5.68 |
| CN(C)CCCn1c(Cn2nnc3ccccc32)nc2ccccc21 |  | 197 µM | 5.96 |
| CCCCn1c(Cn2nnc3ccccc32)nc2ccccc21 |  | 12 µM | 7.18 |
| CC(O)CCn1c(Cn2nnc3ccccc32)nc2ccccc21 (stereo not given) |  | > 309 µM | 6.92 |
| CC(C)n1c(Cn2nnc3ccccc32)nc2ccccc21 |  | 129 µM | 4.81 |

| Compound | EC50 [1] | CC50 (HEp-2) | pEC50 [2] |
| --- | --- | --- | --- |
| CSCCn1c(Cn2nnc3ccccc32)nc2ccccc21 |  | 166 µM | 6.52 |
| CC(C)(C)OC(=O)CCn1c(Cn2nnc3ccccc32)nc2ccccc21 |  | 9.98 µM | 5.37 |
| CS(=O)(=O)CCn1c(Cn2nnc3ccccc32)nc2ccccc21 |  | 337 µM | 6.60 |
| OC(Cn1c(Cn2nnc3ccccc32)nc2ccccc21)c1ccccc1 (stereo not given) |  | 37.6 µM | 6.23 |
| CC(C)CCn1c(Cn2nnc3ccccc32)nc2ccccc21 |  | 39.9 µM | 7.00 |
| CCN(CC)CCCn1c(Cn2nnc3ccccc32)nc2ccccc21 | Not Active |  |  |
| C[S+]([O-])CCn1c(Cn2nnc3ccccc32)nc2ccccc21 (stereo not given) |  | 56.4 µM | 6.37 |
| OCCn1c(Cn2nnc3ccccc32)nc2ccccc21 |  | 205 µM | 5.11 |
| CC(C)=CCn1c(Cn2nnc3ccccc32)nc2ccccc21 |  | 102 µM | 5.48 |
| CCN(CC)OC(=O)Cn1c(Cn2nnc3ccccc32)nc2ccccc21 | Not Active | 250 µM |  |
| c1ccc(Cn2c(Cn3nnc4ccccc43)nc3ccccc32)cc1 |  | 9 µM | 4.98 |
| CCN(CC)OC(=O)Cn1c(Cn2nc3ccccc3n2)nc2ccccc21 | Not Active |  |  |
| CN(C)CCCn1c(Cn2nc3ccccc3n2)nc2ccccc21 |  | 182 µM | 5.44 |
| c1ccc(CCn2c(Cn3nnc4ccccc43)nc3ccccc32)cc1 |  | 2.6 µM | 6.11 |
| CC(=O)CCn1c(Cn2nnc3ccccc32)nc2ccccc21 |  | 59 µM | 6.28 |
